Measurements from ChEMBL document CHEMBL1136565, “5-Azidoepibatidine: an exceptionally potent photoaffinity ligand for neuronal alpha 4 beta 2 and alpha 7 nicotinic acetylcholine receptors” (Bioorg Med Chem Lett, 2003).

Columns and labels:
[1] = molecular target: Neuronal acetylcholine receptor; alpha4/beta2 (Homo sapiens, UniProt P17787+P43681); experiment: Binding affinity to alpha4 beta-2 receptor subtype from mouse fibroblast M10 cells was measured using [3 H]nicotine; assay type: cell-based
Chain of Neuronal acetylcholine receptor; alpha4/beta2 (P17787 whole entry): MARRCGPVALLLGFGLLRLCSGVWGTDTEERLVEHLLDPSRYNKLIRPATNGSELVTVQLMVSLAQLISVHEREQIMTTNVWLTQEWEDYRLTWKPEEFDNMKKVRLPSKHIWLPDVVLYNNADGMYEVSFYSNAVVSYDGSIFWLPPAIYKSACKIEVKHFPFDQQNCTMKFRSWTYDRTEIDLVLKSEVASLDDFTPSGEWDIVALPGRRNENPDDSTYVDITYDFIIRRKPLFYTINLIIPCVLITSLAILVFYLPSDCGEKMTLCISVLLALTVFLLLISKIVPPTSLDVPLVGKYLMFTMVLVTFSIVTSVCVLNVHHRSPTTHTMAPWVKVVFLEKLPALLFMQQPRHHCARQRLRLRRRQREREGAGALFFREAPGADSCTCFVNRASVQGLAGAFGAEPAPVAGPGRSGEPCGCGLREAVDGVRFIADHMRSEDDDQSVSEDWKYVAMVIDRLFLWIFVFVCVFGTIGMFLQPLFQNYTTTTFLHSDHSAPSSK
Chain of Neuronal acetylcholine receptor; alpha4/beta2 (P43681 whole entry): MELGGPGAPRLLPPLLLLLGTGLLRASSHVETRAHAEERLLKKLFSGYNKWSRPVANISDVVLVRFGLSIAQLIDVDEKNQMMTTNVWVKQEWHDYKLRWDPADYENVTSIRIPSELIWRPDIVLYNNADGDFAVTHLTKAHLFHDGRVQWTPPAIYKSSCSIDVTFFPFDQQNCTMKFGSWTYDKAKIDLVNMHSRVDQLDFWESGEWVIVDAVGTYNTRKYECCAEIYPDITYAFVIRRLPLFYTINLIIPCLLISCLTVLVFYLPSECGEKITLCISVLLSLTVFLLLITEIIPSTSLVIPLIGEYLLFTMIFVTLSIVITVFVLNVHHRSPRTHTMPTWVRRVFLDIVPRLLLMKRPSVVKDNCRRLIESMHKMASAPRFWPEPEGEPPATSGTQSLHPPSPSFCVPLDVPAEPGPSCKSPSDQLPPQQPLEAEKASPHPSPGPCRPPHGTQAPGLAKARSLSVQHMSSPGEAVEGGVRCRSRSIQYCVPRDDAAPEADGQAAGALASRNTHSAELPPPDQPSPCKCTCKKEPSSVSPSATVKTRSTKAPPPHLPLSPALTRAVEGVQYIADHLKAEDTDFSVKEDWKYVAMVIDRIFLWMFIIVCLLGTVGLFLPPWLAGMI

[2] = Binding affinity to Drosophila nicotinic receptor was measured using [3H]imidacloprid as radioligand; design: species or system Drosophila melanogaster
[3] = molecular target: Neuronal acetylcholine receptor subunit alpha-7 (Homo sapiens, UniProt P36544); experiment: Binding affinity to alpha-7 receptor subtype from human neuroblastoma SH-SY5Y cells was measured using [125I]-alpha-bungarotoxin as radioligand; assay type: cell-based
Chain of Neuronal acetylcholine receptor subunit alpha-7 (P36544 whole entry): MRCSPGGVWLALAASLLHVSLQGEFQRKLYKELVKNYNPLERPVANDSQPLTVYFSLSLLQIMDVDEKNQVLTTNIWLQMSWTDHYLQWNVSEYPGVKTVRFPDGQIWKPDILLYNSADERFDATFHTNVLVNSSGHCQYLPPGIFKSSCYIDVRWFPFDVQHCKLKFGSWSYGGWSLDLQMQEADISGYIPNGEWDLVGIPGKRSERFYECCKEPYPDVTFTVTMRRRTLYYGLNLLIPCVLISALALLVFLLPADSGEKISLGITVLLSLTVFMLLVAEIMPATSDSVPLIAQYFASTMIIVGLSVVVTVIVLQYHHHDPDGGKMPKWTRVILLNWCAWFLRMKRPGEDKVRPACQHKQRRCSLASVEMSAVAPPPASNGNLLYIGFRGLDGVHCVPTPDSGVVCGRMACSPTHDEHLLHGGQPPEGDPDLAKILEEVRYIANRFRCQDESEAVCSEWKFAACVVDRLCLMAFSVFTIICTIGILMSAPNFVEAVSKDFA

[N-]=[N+]=Nc1cc(C2CC3CCC2N3)cnc1Cl (stereo not given) [AZIDOEPIBATIDINE]
Ki [1]: 0.027 nM | Ki [2]: 2100 nM | Ki [3]: 9.7 nM

Clc1ccc(C2CC3CCC2N3)cn1 (stereo not given) [EPIBATIDINE]
Ki [2]: 200 nM | Ki [3]: 10.2 nM
